Measured values published in patent US9216983B2, “Dihydroorotate dehydrogenase inhibitors with selective anti-malarial activity” (BOARD OF REGENTS, UNIVERSITY OF TEXAS SYSTEM, priority 2007, dated 2015).

Legend:
[1] = system: P. berghei; assay: Standard P. berghei mouse model of infection; type: in vivo; conditions: mice, oral
Procedure: (A) The standard P. berghei mouse model for infection is utilized to evaluate the efficacy of candidate compounds, according to the invention, against parasites in vivo. See review of Fidock, et al. (2004) Nature Rev. Drug Discovery 3, 509-20. Compounds are dosed either orally or IP, with the exact regimens (e.g. frequency of dosing, drug concentrations at dosing) determined based on the pharmocokinetic profiles of the individual analogs. […] Inhibition of parasite growth is determined microscopically by staining a thin smear of blood obtained from the test animal using a Wright-Giemsa stain.

[2] = Pharmacokinetic analysis after single oral dose in mice; type: in vivo; conditions: for peak plasma concentration: FIG. 1A
Procedure: Pharmacokinetics of the inventive compounds was studied individually in non-fasted male Swiss outbred mice weighing 23-33 g. Mice had access to food and water ad libitum throughout the pre- and post-dose sampling period. Compounds were administered orally by gavage (0.1 mL dose volume per mouse) in a suspension of aqueous vehicle (0.5% w/v sodium caboxymethylcellulose, 0.5% v/v benzyl alcohol and 0.4% v/v Tween 80). A single blood sample was collected from each mouse via cardiac puncture at each indicated time point and transferred to heparinised tubes. Blood samples were centrifuged immediately, supernatant plasma was removed and stored at −20° C. until analysis (within 1-2 weeks). Plasma samples were assayed by LC-MS following protein precipitation with acetonitrile and the concentration of drug in plasma was determined. Pharmacokinetic parameters were calculated on the basis of plasma concentration-time profiles that used the mean plasma concentration at each sample time.

[3] = system: P. falciparum; assay: Inhibition of cell proliferation, 3H-hypoxanthine uptake in P. falciparum-infected erythrocytes; type: cell-based; conditions: Plasmodium falciparum, 3D7, Erythrocyte, Table 2, 3D7; read-out: P. falciparum 3D7 EC50 (converted)
Source text: [formula] II. In Vitro Evaluation of Compound Efficacy on the Human Malaria Parasite, P. falciparum.

[4] = for a 2.5-fold increase in dose, 20 to 50 mg/kg

AUC0-last increase [2, 4]: 4.4 fold
Cmax increase [2, 4]: 3.5 fold
half-life ([2]; male, Swiss outbred, mouse, plasma, mice, oral, 50 mg/kg, read-out: apparent half-life): 2.95 h
AUC0-last ([2]; mice, oral, 20 mg/kg): 2690 µM·min
Cmax ([2]; mice, oral, 20 mg/kg): 7.9 ± 2.5 µM
apparent half-life ([2]; mice, oral, 20 mg/kg): 1.8 h
peak plasma concentration ([2]; mice, oral, 20 mg/kg): 11 micro molar
AUC0-last ([2]; mice, oral, 50 mg/kg): 11757 µM·min
Cmax ([2]; mice, oral, 50 mg/kg): 27.6 ± 5 µM
time with plasma concentration above 1 μM ([2]; mice, oral, 50 mg/kg): 16 h
peak plasma concentration ([2]; mice, oral, 50 mg/kg): 31 micro molar
SMILES: Cc1cc(Nc2ccc(C(F)(F)F)cc2)n2ncnc2n1 [drawing 22]
parasite growth ([1]; 50 mg/kg, blood smear Wright-Giemsa stain, FIG. 1B): suppresses parasite growth
parasite growth, twice a day rather than a single dose ([1]; twice a day versus single dose): Greater suppression of parasite growth
adverse reactions following oral administration ([2]; mice, oral, 20 mg/kg and 50 mg/kg): No adverse reactions were observed
EC50 [3]: 350 ± 3 nM
